Data published in US8148391B2 (Cephalon, Inc., priority 2006, dated 2012).
Like-named read-outs stand apart in the source and are kept apart here. Values belong to the compound of their own block, whether it stands above or below them.

Tests used:
[1] = biological target: T1, c-Met (cytoplasmic domain) (Homo sapiens, UniProt P08581); test: c-Met Kinase Assay (same methods as for ALK, with modifications); assay type: biochemical
T1 construct: 10 ng/mL c-Met (cytoplasmic domain, Invitrogen Corporation #PV3143); purchased Invitrogen Corporation PV3143
Procedure, shortened: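 Europium-labeled PT66 antibody (Eu-N1) detects substrate phosphorylation on wells coated with phospholipase C-γ at 10 μg/mL. The kinase, the cytoplasmic domain of c-Met at 10 ng/mL, starts the reaction, which proceeds 15 minutes at 37° C.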

[2] = biological target: T2, baculovirus-expressed ALK (Homo sapiens, UniProt Q9UM73); test: ALK Kinase Assay (ELISA-type, time-resolved fluorescence); assay type: biochemical
T2 construct: host or cells: baculovirus expression system
Procedure, shortened: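 Plates coated with phospholipase C-γ substrate (10 μg/mL in TBS); reaction started with 30 ng/ml ALK and run 15 min at 37° C. Phosphorylated substrate detected with Eu-N1-labeled PT66 antibody. IC50 from sigmoidal variable-slope fit of percent inhibition vs log concentration.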

[3] = 1 μM ATP (Km level), 10 ng/mL c-Met, read-out: cMet Activity (c-Met kinase inhibition, IC50 class)
[4] = 1 μM ATP (Km level), 30 ng/ml ALK, 37° C., 15 minutes, read-out: ALK Activity (ALK kinase inhibition, IC50 class)
[5] = c-Met kinase inhibition, 1 μM ATP, read-out: cMet Activity
[6] = ALK kinase inhibition, 1 μM ATP, read-out: ALK Activity
[7] = c-Met kinase inhibition, 1 μM ATP (Km level), read-out: cMet Activity
[8] = ALK kinase inhibition, 1 μM ATP (Km level), read-out: ALK Activity
[9] = 1 μM ATP (Km level), read-out: cMet Activity (c-Met Kinase Inhibition, IC50)
[10] = 1 μM ATP (Km level), read-out: ALK Activity (ALK Kinase Inhibition, IC50)

T1 sequence (P08581 956-1390 limits assumed): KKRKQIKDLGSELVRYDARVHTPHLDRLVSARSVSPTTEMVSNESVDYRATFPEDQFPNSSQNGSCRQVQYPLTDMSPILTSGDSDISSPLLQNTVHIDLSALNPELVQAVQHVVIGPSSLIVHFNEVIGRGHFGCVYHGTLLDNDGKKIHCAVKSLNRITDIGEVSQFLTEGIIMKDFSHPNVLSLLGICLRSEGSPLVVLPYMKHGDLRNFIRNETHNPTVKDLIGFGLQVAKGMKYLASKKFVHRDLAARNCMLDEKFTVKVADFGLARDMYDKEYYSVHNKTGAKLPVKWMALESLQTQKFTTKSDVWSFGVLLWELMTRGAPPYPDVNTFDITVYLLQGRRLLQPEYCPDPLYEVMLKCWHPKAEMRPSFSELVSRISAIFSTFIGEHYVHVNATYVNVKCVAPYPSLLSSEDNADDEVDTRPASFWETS
T2 sequence (Q9UM73 19-1620): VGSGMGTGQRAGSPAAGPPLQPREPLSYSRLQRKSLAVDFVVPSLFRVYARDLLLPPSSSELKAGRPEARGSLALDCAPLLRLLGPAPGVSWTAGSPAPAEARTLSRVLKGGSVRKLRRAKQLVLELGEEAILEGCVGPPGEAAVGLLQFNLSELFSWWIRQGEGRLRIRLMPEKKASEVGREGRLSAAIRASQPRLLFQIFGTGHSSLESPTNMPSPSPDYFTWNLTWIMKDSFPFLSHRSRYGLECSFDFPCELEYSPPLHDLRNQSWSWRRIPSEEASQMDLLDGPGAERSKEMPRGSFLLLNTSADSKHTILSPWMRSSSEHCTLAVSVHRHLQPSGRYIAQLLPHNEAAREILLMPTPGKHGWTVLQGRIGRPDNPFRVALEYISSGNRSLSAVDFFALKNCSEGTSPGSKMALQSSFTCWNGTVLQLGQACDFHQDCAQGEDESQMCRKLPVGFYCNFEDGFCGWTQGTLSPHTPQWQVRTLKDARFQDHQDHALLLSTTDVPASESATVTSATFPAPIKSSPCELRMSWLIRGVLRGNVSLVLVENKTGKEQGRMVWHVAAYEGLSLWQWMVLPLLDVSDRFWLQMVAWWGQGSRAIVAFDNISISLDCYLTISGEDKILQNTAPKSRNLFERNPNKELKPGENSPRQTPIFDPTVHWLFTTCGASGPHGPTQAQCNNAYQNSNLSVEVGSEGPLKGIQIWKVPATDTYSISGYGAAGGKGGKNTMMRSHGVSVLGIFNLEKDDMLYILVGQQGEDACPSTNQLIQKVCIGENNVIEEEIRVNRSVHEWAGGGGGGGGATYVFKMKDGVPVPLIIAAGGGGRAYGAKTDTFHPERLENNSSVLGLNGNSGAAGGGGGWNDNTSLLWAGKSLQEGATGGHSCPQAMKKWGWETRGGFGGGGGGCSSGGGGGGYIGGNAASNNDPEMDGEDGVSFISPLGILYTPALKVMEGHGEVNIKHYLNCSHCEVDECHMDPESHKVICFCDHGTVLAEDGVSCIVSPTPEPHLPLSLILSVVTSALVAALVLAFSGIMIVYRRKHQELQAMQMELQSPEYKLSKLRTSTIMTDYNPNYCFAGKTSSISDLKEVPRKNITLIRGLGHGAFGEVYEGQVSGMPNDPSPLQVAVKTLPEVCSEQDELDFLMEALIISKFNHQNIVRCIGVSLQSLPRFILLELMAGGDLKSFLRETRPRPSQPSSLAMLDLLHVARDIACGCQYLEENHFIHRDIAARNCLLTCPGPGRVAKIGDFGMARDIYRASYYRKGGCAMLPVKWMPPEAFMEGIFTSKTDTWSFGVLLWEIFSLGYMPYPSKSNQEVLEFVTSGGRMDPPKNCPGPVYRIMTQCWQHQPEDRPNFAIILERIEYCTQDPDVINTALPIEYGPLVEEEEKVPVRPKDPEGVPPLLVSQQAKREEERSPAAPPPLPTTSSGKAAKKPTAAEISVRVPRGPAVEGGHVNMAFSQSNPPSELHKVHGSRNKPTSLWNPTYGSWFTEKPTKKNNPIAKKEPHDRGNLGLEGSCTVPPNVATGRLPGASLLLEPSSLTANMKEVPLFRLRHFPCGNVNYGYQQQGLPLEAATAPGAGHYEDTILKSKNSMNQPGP

SMILES: COc1cc2c(cc1Nc1ncc(Cl)c(N[C@@H]3CCCC[C@H]3NS(C)(=O)=O)n1)CCN(CC(=O)N1CCCC1)CC2 [Example 1160, N-((1R,2R)-2-{5-Chloro-2-[8-methoxy-3-(2-oxo-2-pyrrolidin-1-yl-ethyl)-2,3,4,5-tetrahydro-1H-benzo[d]azepin-7-ylamino]-pyrimidin-4-ylamino}-cyclohexyl)-methanesulfonamide]
IC50 [1, 3]: > 10000 nM | IC50 [2, 4]: < 100 nM

SMILES: COc1cc2c(cc1Nc1ncc(Cl)c(Nc3ccccc3S(=O)(=O)C(C)C)n1)CCN(CC(=O)N1CCN(C)CC1)CC2 [Example 1541, 2-(7-{5-Chloro-4-[2-(propane-2-sulfonyl)-phenylamino]-pyrimidin-2-ylamino}-8-methoxy-1,2,4,5-tetrahydro-3-benzazepin-3-yl)-1-(4-methyl-piperazin-1-yl)-ethanone]
IC50 [1, 5]: > 10000 nM | IC50 [2, 6]: < 100 nM

SMILES: COc1cc2c(cc1Nc1ncc(Cl)c(Nc3ccc(N4CCOCC4)cc3OC)n1)CCN(C(CF)CF)CC2 [Example 1391, Chloro-N(2)-[3-(2-fluoro-1-fluoromethyl-ethyl)-8-methoxy-2,3,4,5-tetrahydro-1H-benzo[d]azepin-7-yl]-N(4)-(2-methoxy-4-morpholin-4-yl-phenyl)-pyrimidine-2,4-diamine]
IC50 [1, 3]: > 10000 nM | IC50 [2, 4]: < 100 nM

SMILES: Cc1nnc(-c2cccc(F)c2Nc2nc(Nc3ccc4c(c3)CCOC(=O)N4C)ncc2Cl)o1 [Example 1787, 2-{5-Chloro-4-[2-fluoro-6-(5-methyl-[1,3,4]oxadiazol-2-yl)-phenylamino]-pyrimidin-2-ylamino}-5-methyl-8,9-dihydro-5H-7-oxa-5-aza-benzocyclohepten-6-one]
IC50 [1, 5]: 100 to 1000 nM | IC50 [2, 6]: 1000 to 10000 nM

SMILES: COCCN1CCN(C)c2ccc(Nc3ncc(Cl)c(N[C@@H]4CCCC[C@H]4NS(C)(=O)=O)n3)cc2C1 [Example 430, N-((1R,2R)-2-{5-Chloro-2-[4-(2-methoxy-ethyl)-1-methyl-2,3,4,5-tetrahydro-1H-benzo[e][1,4]diazepin-7-ylamino]-pyrimidin-4-ylamino}-cyclohexyl)-methanesulfonamide]
IC50 [1, 7]: 1000 to 10000 nM | IC50 [2, 8]: < 100 nM

SMILES: CCN1C(=O)CCC(C)(C)c2cc(Nc3ncc(Cl)c(N[C@H]4[C@@H](C(N)=O)[C@@H]5C=C[C@H]4C5)n3)c(OC)cc21 [Example 1314, (1S,2S,3R,4R)-3-[5-Chloro-2-(1-ethyl-8-methoxy-5,5-dimethyl-2-oxo-2,3,4,5-tetrahydro-1H-benzo[b]azepin-7-ylamino)-pyrimidin-4-ylamino]-bicyclo[2.2.1]hept-5-ene-2-carboxylic acid amide]
IC50 [1, 3]: > 10000 nM | IC50 [2, 4]: < 100 nM

SMILES: CCN1C(=O)CN(CCOC)Cc2cc(OC)c(Nc3ncc(Cl)c(Nc4ccc(N5CCOCC5)cc4OC)n3)cc21 [Example 726, 8-[5-Chloro-4-(2-methoxy-4-morpholin-4-yl-phenylamino)-pyrimidin-2-ylamino]-1-ethyl-7-methoxy-4-(2-methoxy-ethyl)-1,3,4,5-tetrahydro-benzo[e][1,4]diazepin-2-one]
IC50 [1, 9]: > 10000 nM | IC50 [2, 10]: 100 to 1000 nM

SMILES: COc1cc2c(cc1Nc1ncc(Cl)c(Nc3ccccc3S(=O)(=O)N(C)C)n1)CCN(CC(C)(F)F)CC2 [Example 824, 2-{5-Chloro-2-[3-(2,2-difluoro-propyl)-8-methoxy-2,3,4,5-tetrahydro-1H-benzo[d]azepin-7-ylamino]-pyrimidin-4-ylamino}-N,N-dimethyl-benzenesulfonamide]
IC50 [1, 9]: > 10000 nM | IC50 [2, 10]: < 100 nM

SMILES: COc1ccc(Nc2nc(Nc3ccc4c(c3)CCC(N3CCOCC3)CC4)ncc2Cl)c2c1CN(C)C2=O (stereo not shown) [Example 939, 7-[5-Chloro-2-(7-morpholin-4-yl-6,7,8,9-tetrahydro-5H-benzocyclohepten-2-ylamino)-pyrimidin-4-ylamino]-4-methoxy-2-methyl-2,3-dihydro-isoindol-1-one]
IC50 [1, 9]: 1000 to 10000 nM | IC50 [2, 10]: < 100 nM

SMILES: COc1cc2c(cc1Nc1ncc(Cl)c(Nc3ccc(N4CCOCC4)c(OC)c3)n1)CCN(CC(=O)N(C)C)CC2 [Example 803, 2-{7-[5-Chloro-4-(3-methoxy-4-morpholin-4-yl-phenylamino)-pyrimidin-2-ylamino]-8-methoxy-1,2,4,5-tetrahydro-benzo[d]azepin-3-yl}-N,N-dimethyl-acetamide]
IC50 [1, 9]: > 10000 nM | IC50 [2, 10]: < 100 nM

SMILES: COc1cc2c(cc1Nc1ncc(Cl)c(Nc3ccc(N4CCN(C)CC4)cc3OC)n1)CCN(CC(C)(F)F)CC2 [Example 781, 5-Chloro-N*2*-[3-(2,2-difluoro-propyl)-8-methoxy-2,3,4,5-tetrahydro-1H-benzo[d]azepin-7-yl]-N*4*-[2-methoxy-4-(4-methyl-piperazin-1-yl)-phenyl]-pyrimidine-2,4-diamine]
IC50 [1, 9]: > 10000 nM | IC50 [2, 10]: < 100 nM

Now from value to compound:

IC50 [1, 3]: 1000 to 10000 nM | IC50 [2, 4]: < 100 nM
SMILES: COc1cc2c(cc1Nc1ncc(Cl)c(Nc3ccccc3S(=O)(=O)N3CCC(O)C3)n1)CCC(NCCO)CC2 (stereo not shown) [Example 1088, 1-(2-{5-Chloro-2-[7-(2-hydroxy-ethylamino)-3-methoxy-6,7,8,9-tetrahydro-5H-benzocyclohepten-2-ylamino]-pyrimidin-4-ylamino}-benzenesulfonyl)-pyrrolidin-3-ol]

IC50 [1, 5]: < 100 nM | IC50 [2, 6]: < 100 nM
SMILES: CNC(=O)c1cc(-c2cnn(C)c2)cc(F)c1Nc1nc(Nc2ccc3c(c2)NC(=O)CCC3(C)C)ncc1Cl [Example 1624, 2-[5-Chloro-2-(5,5-dimethyl-2-oxo-2,3,4,5-tetrahydro-1H-benzo[b]azepin-8-ylamino)-pyrimidin-4-ylamino]-3-fluoro-N-methyl-5-(1-methyl-1H-pyrazol-4-yl)-benzamide]

IC50 [1, 5]: 1000 to 10000 nM | IC50 [2, 6]: < 100 nM
SMILES: COc1cc2c(cc1Nc1ncc(Cl)c(Nc3ccccc3S(=O)(=O)N(C)C)n1)CCN(CCO)CC2 [Example 1530, 2-{5-Chloro-2-[3-(2-hydroxy-ethyl)-8-methoxy-2,3,4,5-tetrahydro-1H-3-benzazepin-7-ylamino]-pyrimidin-4-ylamino}-N,N-dimethyl-benzenesulfonamide]

IC50 [1, 3]: 1000 to 10000 nM | IC50 [2, 4]: < 100 nM
SMILES: CCNC(=O)c1cccc(F)c1Nc1nc(Nc2cc3c(cc2OC)CCN(CC(=O)NC)CC3)ncc1Cl [Example 1364, 2-[5-Chloro-2-(8-methoxy-3-methylcarbamoylmethyl-2,3,4,5-tetrahydro-1H-benzo[d]azepin-7-ylamino)-pyrimidin-4-ylamino]-N-ethyl-3-fluoro-benzamide]

IC50 [1, 5]: < 100 nM | IC50 [2, 6]: 100 to 1000 nM
SMILES: CNC(=O)c1cccc(F)c1Nc1nc(Nc2ccc3c(c2)N(C(C)=O)CCCC3)ncc1Cl [Example 1489, 2-[2-(1-Acetyl-2,3,4,5-tetrahydro-1H-benzo[b]azepin-8-ylamino)-5-chloro-pyrimidin-4-ylamino]-3-fluoro-N-methyl-benzamide]

IC50 [1, 3]: 1000 to 10000 nM | IC50 [2, 4]: 100 to 1000 nM
SMILES: CCN1C(=O)CCCc2ccc(Nc3ncc(Cl)c(Nc4ccccc4CCC#N)n3)cc21 [Example 1232, 3-{2-[5-Chloro-2-(1-ethyl-2-oxo-2,3,4,5-tetrahydro-1H-1-benzazepin-8-ylamino)-pyrimidin-4-ylamino]-phenyl}-propionitrile]

IC50 [1, 7]: < 100 nM | IC50 [2, 8]: 100 to 1000 nM
SMILES: C#CCN1CC2OC(C1)c1cc(Nc3ncc(Cl)c(Nc4ccccc4C(=O)NC)n3)ccc12 (stereo not shown) [Example 63, 2-[5-Chloro-2-(10-prop-2-ynyl-12-oxa-10-aza-tricyclo[6.3.1.0*2,7*]dodeca-2,4,6-trien-4-ylamino)-pyrimidin-4-ylamino]-N-methyl-benzamide]

IC50 [1, 3]: 100 to 1000 nM | IC50 [2, 4]: 100 to 1000 nM
SMILES: CNC(=O)c1cc(N(C)C)ccc1Nc1nc(Nc2ccc3c(c2)NC(=O)CCC3)ncc1Cl [Example 1412, 2-[5-Chloro-2-(2-oxo-2,3,4,5-tetrahydro-1H-benzo[b]azepin-8-ylamino)-pyrimidin-4-ylamino]-5-dimethylamino-N-methyl-benzamide]

IC50 [1, 5]: < 100 nM | IC50 [2, 6]: < 100 nM
SMILES: CNC(=O)c1scc(C)c1Nc1nc(Nc2ccc3c(c2)CN(C)C(=O)CC3)ncc1Cl [Example 1799, 3-[5-Chloro-2-(2-methyl-3-oxo-2,3,4,5-tetrahydro-1H-benzo[c]azepin-8-ylamino)-pyrimidin-4-ylamino]-4-methyl-thiophene-2-carboxylic acid methylamide]

IC50 [1, 7]: > 10000 nM | IC50 [2, 8]: > 10000 nM
SMILES: CNC(=O)c1ccccc1Nc1nc(Nc2c(OC)ccc3c2C(=O)N(C)CCC3)ncc1Cl [Example 114, 2-[5-Chloro-2-(8-methoxy-2-methyl-1-oxo-2,3,4,5-tetrahydro-1H-benzo[c]azepin-9-ylamino)-pyrimidin-4-ylamino]-N-methyl-benzamide]

IC50 [1, 3]: 1000 to 10000 nM | IC50 [2, 4]: 100 to 1000 nM
SMILES: CCCCNC(=O)c1ccccc1Nc1nc(Nc2ccc3c(c2)CCCC(=O)N3)ncc1Cl [Example 1029, N-Butyl-2-[5-chloro-2-(2-oxo-2,3,4,5-tetrahydro-1H-benzo[b]azepin-7-ylamino)-pyrimidin-4-ylamino]-benzamide]

IC50 [1, 9]: > 10000 nM | IC50 [2, 10]: 1000 to 10000 nM
SMILES: CC1(C)CCC(=O)Nc2ccc(Nc3ncc(Cl)c(Nc4ccccc4-c4cc(=O)[nH]c(=O)[nH]4)n3)cc21 [Example 988, 6-{2-[5-Chloro-2-(5,5-dimethyl-2-oxo-2,3,4,5-tetrahydro-1H-benzo[b]azepin-7-ylamino)-pyrimidin-4-ylamino]-phenyl}-1H-pyrimidine-2,4-dione]
